“And” between values parts separate entries of the source, which are not always exact repeats. Identical values can stand only once. Inconclusive results and toxic doses are left out.

For the assay, the system named is L1210 leukemia ip in BDF1 mice, survival T/C. The assay is described as follows: NCI In Vivo Anticancer Drug Screen. Data for tumor model L1210 Leukemia (intraperitoneal) in B6D2F1 (BDF1) mice. The note with it: endpoint: mean survival time, higher = longer survival. The method, boiled down:
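Read-out is survival time, reported as the treated-group measurement over the vehicle-control measurement.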

[1] abbreviates: dose: 12.0 mg/kg/injection, schedule: Q01DX001 (ip), vehicle: saline.
[2] abbreviates: dose: 50.0 mg/kg/injection, schedule: Q01DX009 (ip), vehicle: saline.
The mark [3] stands for this setting: dose: 50.0 mg/kg/injection, schedule: Q04DX003 (ip), vehicle: Klucel (hydroxypropylcellulose) (HPC).
The mark [4] stands for this setting: dose: 100.0 mg/kg/injection, schedule: Q01DX001 (ip), vehicle: saline.
Where [5] appears, read: dose: 100.0 mg/kg/injection, schedule: Q04DX003 (ip), vehicle: Klucel (hydroxypropylcellulose) (HPC).
Where [6] appears, read: dose: 25.0 mg/kg/injection, schedule: Q01DX009 (ip), vehicle: saline.

On to `c1nc(SSc2ncnc3nc[nH]c23)c2[nH]cnc2n1`, for which the T/C (dose: 0.1 mg/kg/injection, schedule: Q04DX003 (ip), vehicle: saline) was 97 % of control; the T/C (dose: 0.12 mg/kg/injection, schedule: Q04DX003 (ip), vehicle: saline) was 119 % of control; the T/C (dose: 0.2 mg/kg/injection, schedule: Q04DX003 (ip), vehicle: saline) is 119 % of control; the T/C (dose: 0.25 mg/kg/injection, schedule: Q04DX003 (ip), vehicle: saline) is 117 % of control; the T/C (dose: 0.35 mg/kg/injection, schedule: Q01DX009 (ip), vehicle: saline) was 100 % of control; the T/C (dose: 0.5 mg/kg/injection, schedule: Q04DX003 (ip), vehicle: saline) is 120 % of control. Besides, the T/C reads like this: (dose: 0.8 mg/kg/injection, schedule: Q01DX009 (ip), vehicle: saline) 152 % of control; (dose: 0.8 mg/kg/injection, schedule: Q04DX003 (ip), vehicle: saline with Tween-80) 98 % of control; (dose: 1.6 mg/kg/injection, schedule: Q04DX003 (ip), vehicle: saline with Tween-80) 106 % of control; (dose: 3.0 mg/kg/injection, schedule: Q04DX003 (ip), vehicle: saline) 239 % of control; (dose: 3.08 mg/kg/injection, schedule: Q01DX001 (ip), vehicle: saline with Tween-80) 121 % of control; (dose: 3.25 mg/kg/injection, schedule: Q04DX003 (ip), vehicle: saline with Tween-80) 113 % of control. Further, the T/C was 121 % of control (dose: 5.5 mg/kg/injection, schedule: Q04DX003 (ip), vehicle: Klucel (hydroxypropylcellulose) (HPC)); 112 % of control (dose: 6.0 mg/kg/injection, schedule: Q04DX003 (ip), vehicle: saline); 189 % of control (dose: 7.5 mg/kg/injection, schedule: Q04DX003 (ip), vehicle: saline); 118 % of control (dose: 10.0 mg/kg/injection, schedule: Q01DX001 (ip), vehicle: saline); 169 % of control (dose: 10.0 mg/kg/injection, schedule: Q01DX009 (ip), vehicle: saline); 103 % of control under setting [1]. Besides, the T/C reads like this: (dose: 12.0 mg/kg/injection, schedule: Q04DX003 (ip), vehicle: saline) 154 % of control; (dose: 15.0 mg/kg/injection, schedule: Q01DX009 (ip), vehicle: saline) 154 % of control; (dose: 15.0 mg/kg/injection, schedule: Q04DX003 (ip), vehicle: saline) 159 % of control; (dose: 25.0 mg/kg/injection, schedule: Q04DX003 (ip), vehicle: saline) 151 % of control; (dose: 26.0 mg/kg/injection, schedule: Q04DX003 (ip), vehicle: saline with Tween-80) 157 % of control; (dose: 29.7 mg/kg/injection, schedule: Q04DX003 (ip), vehicle: saline) 106 % of control. Further, the T/C reads like this: (dose: 30.0 mg/kg/injection, schedule: Q04DX003 (ip), vehicle: saline) 90 % of control; (dose: 33.0 mg/kg/injection, schedule: Q04DX003 (ip), vehicle: Klucel (hydroxypropylcellulose) (HPC)) 120 % of control; (dose: 35.0 mg/kg/injection, schedule: Q01DX009 (ip), vehicle: saline with Tween-80) 163 % of control; (dose: 35.0 mg/kg/injection, schedule: Q04DX003 (ip), vehicle: Klucel (hydroxypropylcellulose) (HPC)) 198 % of control; (dose: 39.0 mg/kg/injection, schedule: Q04DX003 (ip), vehicle: saline with Tween-80) 172 % of control; (dose: 44.0 mg/kg/injection, schedule: Q01DX009 (ip), vehicle: saline) 100 % of control. Besides, the T/C by setting is: (dose: 44.0 mg/kg/injection, schedule: Q04DX003 (ip), vehicle: saline) 202 % of control; under setting [2], 106 % of control; under setting [3], 152 % of control and 209 % of control; (dose: 50.0 mg/kg/injection, schedule: Q04DX003 (ip), vehicle: saline) 123 % of control and 203 % of control; (dose: 52.0 mg/kg/injection, schedule: Q04DX003 (ip), vehicle: saline with Tween-80) 168 % of control; (dose: 63.0 mg/kg/injection, schedule: Q01DX Z (ip), vehicle: saline) 95 % of control. The T/C runs as follows: (dose: 66.0 mg/kg/injection, schedule: Q01DX001 (ip), vehicle: saline) 157 % of control; (dose: 66.0 mg/kg/injection, schedule: Q04DX003 (ip), vehicle: saline) 216 % of control; (dose: 67.5 mg/kg/injection, schedule: Q04DX003 (ip), vehicle: saline) 106 % of control; (dose: 70.0 mg/kg/injection, schedule: Q01DX009 (ip), vehicle: saline with Tween-80) 93 % of control; (dose: 70.0 mg/kg/injection, schedule: Q04DX003 (ip), vehicle: saline) 178 % of control; under setting [4], 155 % of control. Moreover, the T/C runs as follows: under setting [5], 124 % of control; (dose: 140.0 mg/kg/injection, schedule: Q04DX003 (ip), vehicle: saline) 103 % of control; (dose: 200.0 mg/kg/injection, schedule: Q04DX003 (ip), vehicle: saline) 89 % of control.
Take `CCCCCC[Si]CCCCCC`: the T/C by setting is: (dose: 100.0 mg/kg/injection, schedule: Q01DX001 (ip), vehicle: saline with Tween-80) 94 % of control; (dose: 200.0 mg/kg/injection, schedule: Q01DX001 (ip), vehicle: saline with Tween-80) 100 % of control; (dose: 400.0 mg/kg/injection, schedule: Q01DX001 (ip), vehicle: saline with Tween-80) 94 % of control.
As for `CC(C)NC1(C(N)=O)CCN(Cc2ccccc2)CC1`, the T/C is, setting by setting: (dose: 50.0 mg/kg/injection, schedule: Q01DX009 (ip), vehicle: Klucel (hydroxypropylcellulose) (HPC)) 95 % of control; under setting [3], 98 % of control; (dose: 100.0 mg/kg/injection, schedule: Q01DX009 (ip), vehicle: Klucel (hydroxypropylcellulose) (HPC)) 100 % of control; under setting [5], 93 % of control; (dose: 200.0 mg/kg/injection, schedule: Q01DX009 (ip), vehicle: Klucel (hydroxypropylcellulose) (HPC)) 104 % of control; (dose: 200.0 mg/kg/injection, schedule: Q04DX003 (ip), vehicle: Klucel (hydroxypropylcellulose) (HPC)) 95 % of control.
In the case of `C=C1C(=O)OC2C1CCC(C)C1(O)C=CC(=O)C21C` (stereo unspecified), the T/C is, setting by setting: (dose: 6.25 mg/kg/injection, schedule: Q01DX009 (ip), vehicle: saline) 98 % of control; (dose: 12.5 mg/kg/injection, schedule: Q01DX009 (ip), vehicle: saline) 98 % of control; under setting [6], 101 % of control; under setting [2], 103 % of control.
Take `NCC(=O)NC(CSSCC(N)C(=O)O)C(=O)O` (stereo unspecified): the T/C (dose: 25.0 mg/kg/injection, schedule: Q04DX002 (ip), vehicle: saline) is 103 % of control; the T/C (dose: 50.0 mg/kg/injection, schedule: Q04DX002 (ip), vehicle: saline) is 103 % of control; the T/C (dose: 100.0 mg/kg/injection, schedule: Q04DX002 (ip), vehicle: saline) is 100 % of control.
With `Cc1ccc(/C=C2/COC/C(=C\c3ccc(C)cc3)C2=O)cc1`, the T/C reads like this: (dose: 6.0 mg/kg/injection, schedule: Q01DX009 (ip), vehicle: saline) 96 % of control; under setting [1], 88 % of control; (dose: 12.0 mg/kg/injection, schedule: Q01DX009 (ip), vehicle: saline) 94 % of control; (dose: 25.0 mg/kg/injection, schedule: Q01DX001 (ip), vehicle: saline) 93 % of control; under setting [6], 109 % of control.
In the case of `N#CC1=C(N)CCCC1`, the T/C (dose: 100.0 mg/kg/injection, schedule: Q04DX003 (ip), vehicle: saline with Tween-80) was 104 % of control.
Regarding `CCCCCCCCN(C)N=Nc1ccc(Cl)cc1C(=O)O`, for the setting “dose: 150.0 mg/kg/injection, schedule: Q01DX009 (ip), vehicle: Klucel (hydroxypropylcellulose) (HPC)”, the T/C is 117 % of control.
On to `Cc1ccc(C(C#N)c2ccc(N)cc2)cc1` (stereo unspecified), for which the T/C is, setting by setting: (dose: 50.0 mg/kg/injection, schedule: Q01DX001 (ip), vehicle: saline) 98 % of control; under setting [4], 101 % of control; (dose: 200.0 mg/kg/injection, schedule: Q01DX001 (ip), vehicle: saline) 101 % of control.
Take `COc1cc(N)c(CC2c3cc(OC)c(OC)cc3CCN2C)cc1OC` (stereo unspecified): the T/C is 95 % of control (dose: 75.0 mg/kg/injection, schedule: Q01DX001 (ip), vehicle: carboxymethylcellulose (CMC)) and 95 % of control (dose: 150.0 mg/kg/injection, schedule: Q01DX001 (ip), vehicle: carboxymethylcellulose (CMC)).
Turning to `CCCCCCCCCCCCSC(SCCCCCCCCCCCC)SCCCCCCCCCCCC`, the T/C was 95 % of control (dose: 100.0 mg/kg/injection, schedule: Q01DX001 (ip), vehicle: other); 106 % of control (dose: 200.0 mg/kg/injection, schedule: Q01DX001 (ip), vehicle: other); 95 % of control (dose: 400.0 mg/kg/injection, schedule: Q01DX001 (ip), vehicle: other).
